Source: patent publication US12662475B2, “Difluorocyclohexyl derivatives as IL-17 modulators” (UCB BIOPHARMA SRL, priority 2020, dated 2026)

test system: IL-17 induced IL-6 release from human dermal fibroblasts; assay: Inhibition of IL-17A induced IL-6 release from dermal fibroblast cell line (HDF cell line assay); format: cell-based; details: Incubation Time 5 h
Protocol: Inhibition of IL-17A Induced IL-6 Release from Dermal Fibroblast Cell Line
The purpose of this assay is to test the neutralising ability to IL-17 proteins, in a human primary cell system.
The resultant IL-6 response was then measured using a homogenous time-resolved FRET kit from Cisbio. The kit utilises two monoclonal antibodies, one labelled with Eu-Cryptate (Donor) and the second with d2 or XL665 (Acceptor).
The ability of a compound to inhibit IL-17 induced IL-6 release from human dermal fibroblasts is measured in this assay.
The TrypLE was neutralised using complete medium (45 mL) and the cells were centrifuged at 300×g for 3 minutes. […] The cells were left for a minimum of three hours, at 37° C./5% CO2, to adhere to the plate.
10 μL from the aqueous dilution plate was transferred to the reagent plate containing 30 μL of the diluted cytokines, to give a 2.5% DMSO solution. The compounds were incubated with the cytokine mixtures for 1 h or 5 h at 37° C. After the incubation, 10 μL was transferred to the assay plate, to give a […] solution, then incubated for 18-20 h at 37° C./5% CO2.

Structure (SMILES)	IC50 [nM]
CC(C)(F)CNC(=O)[C@@H](CC(F)(F)F)c1ccc2[nH]c([C@@H](NC(=O)c3nonc3C3CC3)C3CCC(F)(F)CC3)nc2c1F (single isomer, unassigned) [Example 64]	2
Cc1nonc1C(=O)N[C@H](c1nc2c(F)c(C(CC(F)(F)F)C(=O)NCC(F)(F)F)ccc2[nH]1)C1CCC(F)(F)CC1 (mixture of isomers) [Example 33, N—[(S)-(4,4-Difluorocyclohexyl){4-fluoro-5-[3,3,3-trifluoro-1-(2,2,2-trifluoroethyl-carbamoyl)propyl]-1H-benzimidazol-2-yl}methyl]-4-methyl-1,2,5-oxadiazole-3-carboxamide]	3.98
Cc1nonc1C(=O)N[C@H](c1nc2c(F)c([C@H](CC(F)F)C(=O)N[C@@H](C)C(F)(F)F)ccc2[nH]1)C1CCC(F)(F)CC1 (single isomer, unassigned) [Example 44]	10
Cc1nonc1C(=O)N[C@H](c1nc2c(F)c([C@@H](CC(F)F)C(=O)N[C@@H](C)C(F)(F)F)ccc2[nH]1)C1CCC(F)(F)CC1 (single isomer, unassigned) [Example 45]	501
Cc1nonc1C(=O)N[C@H](c1nc2c(F)c(C(CC(F)F)C(=O)N[C@H](C)C(F)(F)F)ccc2[nH]1)C1CCC(F)(F)CC1 (mixture of isomers) [Example 46, N—{(S)-(4,4-Difluorocyclohexyl)[5-(3,3-difluoro-1-{[(1R)-2,2,2-trifluoro-1-methylethyl]-carbamoyl}propyl)-4-fluoro-1H-benzimidazol-2-yl]methyl}-4-methyl-1,2,5-oxadiazole-3-carboxamide]	398
Cc1nonc1C(=O)N[C@H](c1nc2c(F)c([C@@H](CC(F)F)C(=O)NCC(F)(F)F)ccc2[nH]1)C1CCC(F)(F)CC1 (single isomer, unassigned) [Example 42]	126
CC(C)n1ncnc1C(=O)N[C@H](c1nc2c(F)c([C@@H](CC(F)(F)F)C(=O)NCC(C)(F)F)ccc2[nH]1)C1CCC(F)(F)CC1 (single isomer, unassigned) [Example 69]	2510
CC(C)n1ncnc1C(=O)N[C@H](c1nc2c(F)c([C@@H](CC(F)(F)F)C(=O)NCC(C)(C)F)ccc2[nH]1)C1CCC(F)(F)CC1 (single isomer, unassigned) [Example 72]	1580
CC(C)n1ncnc1C(=O)N[C@H](c1nc2c(F)c([C@H](CC(F)F)C(=O)NCC(C)(C)F)ccc2[nH]1)C1CCC(F)(F)CC1 (single isomer, unassigned) [Example 58]	7.94
CC(F)(F)CNC(=O)[C@@H](CC(F)(F)F)c1ccc2[nH]c([C@@H](NC(=O)C3(F)CC3)C3CCC(F)(F)CC3)nc2c1F (single isomer, unassigned) [Example 84]	25.1
Cc1nonc1C(=O)N[C@H](c1nc2c(F)c(C(CC(F)F)C(=O)N[C@@H](C)C(F)(F)F)ccc2[nH]1)C1CCC(F)(F)CC1 (mixture of isomers) [Example 43, N—{(S)-(4,4-Difluorocyclohexyl)[5-(3,3-difluoro-1-{[(1S)-2,2,2-trifluoro-1-methylethyl]-carbamoyl}propyl)-4-fluoro-1H-benzimidazol-2-yl]methyl}-4-methyl-1,2,5-oxadiazole-3-carboxamide]	50.1
CC(C)n1ncnc1C(=O)N[C@H](c1nc2c(F)c([C@H](CC(F)F)C(=O)NCC(C)(F)F)ccc2[nH]1)C1CCC(F)(F)CC1 (single isomer, unassigned) [Example 55]	3.98
CC(C)n1ncnc1C(=O)N[C@H](c1nc2c(F)c([C@H](CC(F)F)C(=O)NCC(F)(F)F)ccc2[nH]1)C1CCC(F)(F)CC1 [Example 80, N—[(S)-(4,4-Difluorocyclohexyl){5-[(1S)-3,3-difluoro-1-(2,2,2-trifluoroethylcarbamoyl)-propyl]-4-fluoro-1H-benzimidazol-2-yl}methyl]-2-isopropyl-1,2,4-triazole-3-carboxamide]	6.31
CCS(=O)(=O)CC[C@H](C(=O)N1CC(F)(F)C(F)(F)C1)c1ccc2[nH]c([C@@H](NC(=O)c3nonc3C)C3CCC(F)(F)CC3)nc2c1F (single isomer, unassigned) [Example 28]	3.16
